In US5606037A, “Processes antineoplastic heteronaphthoquinones” (BioChem Pharma Inc., priority 1995, dated 1997) one finds IC50 data, which are given here for 16 molecules.

Common to all, as to assay type: cell-based, Human
The test system of test [1] is SKOV3 (Ovarian adenocarcinoma). As to the kind of experiment: In vitro cytotoxicity, microculture tetrazolium (MTT) assay, SKOV3. The conditions noted are these: Homo sapiens, SK-OV-3; SKOV3 ovarian adenocarcinoma; 48 h with compound, further 48 h, MTT; Table 1. An outline of the steps:
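Cells plated overnight, then exposed to compound (1:3 dilutions, 100 μM to 1.7 nM, quadruplicate) 48 h at 37 °C, followed by 48 h in fresh medium. MTT 4 h, formazan extracted in DMSO/Sorensen's buffer pH 10.5, A570; four-parameter logistic fit on 0–100% survival scale.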

For test [2], the system named is SKVLB (Ovarian; multidrug resistant). In words: In vitro cytotoxicity, microculture tetrazolium (MTT) assay, SKVLB. The conditions noted are these: Homo sapiens; SKVLB multidrug resistant ovarian; 48 h with compound, further 48 h, MTT; Table 1. Put shortly:
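Multidrug-resistant SKVLB ovarian cells, 1,500–4,000 per well, exposed to compound (1:3 dilutions, 100 μM to 1.7 nM, quadruplicate) for 48 h at 37 °C, then 48 h in fresh medium. Viability by MTT reduction, formazan read at 570 nm; four-parameter logistic fit on a 0–100% survival scale.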

In test [3] the test system is T47D (Ductal carcinoma of breast). In words: In vitro cytotoxicity, microculture tetrazolium (MTT) assay, T47D. The following applies: Homo sapiens, 48 h with compound, further 48 h, Table 1. Put shortly: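 Adherent cells (1,500-4,000/well) were exposed to compound in 1:3 dilutions from 100 μM to 1.7 nM, in quadruplicate, for 48 h at 37° C, followed by 48 h in fresh medium. MTT formazan was read at 570 nm, and data were fitted by four-parameter logistic on a 0-100% survival scale.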

A further test concerns Lox (Melanoma). As to the kind of experiment: In vitro cytotoxicity, microculture tetrazolium (MTT) assay, LOX. The conditions noted are these: Homo sapiens, 48 h with compound, further 48 h, Table 1. An outline of the steps:
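LOX melanoma cells, 1,500–4,000 per well, exposed to compound (1:3 dilutions, 100 μM to 1.7 nM) for 48 h at 37° C., then 48 h in fresh medium. MTT reduction read at 570 nm; four-parameter logistic fit normalized to 0–100% survival.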

For test [4], the system named is HT 29 (Colon adenocarcinoma). As to the kind of experiment: In vitro cytotoxicity, microculture tetrazolium (MTT) assay, HT29. The conditions noted are these: Homo sapiens, HT-29, 48 h with compound, further 48 h, Table 1. Put shortly: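 HT29 cells exposed to compound (1:3 series, 100 μM to 1.7 nM, quadruplicate) for 48 h at 37 °C, then 48 h in fresh medium. Viability by MTT reduction, formazan absorbance at 570 nm; four-parameter logistic fit on 0-100% survival scale.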

Molecules are shown by their SMILES. Where a name gives a salt, the structure may show the parent alone.

A word on the IC50: it is the concentration that gives 50% inhibition. In the case of `CC(=O)C1CC2=C(C(=O)c3ccccc3C2=O)C(O[C@H]2C[C@H](NC(=O)C(F)(F)F)[C@H](OS(C)(=O)=O)[C@H](C)O2)O1` (mixture of isomers) [BCH2095, (1'-S, 1-S, 3-R) and (1'-S, 1-R, 3-S)-methyl-(1-[2',3',4',6' tetradeoxy-3'-trifluoroacetamido-4'-O-methane-sulfonyl-L-lyxohexopyranose)-5,10-dioxo-3,4,5,10 tetrahydronaphtho-[2,3-c]pyran-3-yl) ketone], the 50% inhibitory concentration (IC50) in test [1] amounted to 190 nM; in test [2], 1600 nM; in test [3] it was 370 nM; with Lox (Melanoma), 140 nM; in test [4], 99.6 nM.

In the case of `COC1OC(C(=O)NCCN2CCCC2)=CC2=C1C(=O)c1ccccc1C2=O` (centres unmarked) [BCH2839, 1-methoxy-3-[2-(N-pyrrolidinyl)ethylaminocarbonyl]-5,10-dioxo-5,10-dihydro-1H-naphtho-[2,3-c]-pyran hydrochloride salt], the half-maximal inhibitory concentration (IC50) lay in the range of 36.5 to 46.1 nM in test [1]; 224 to 460 nM in test [2]; 58.1 to 291 nM in test [3]; 262 to 975 nM in the test on Lox (Melanoma); 174 to 490 nM in test [4].

Consider `CC(C)C(=O)[C@@H]1CC2=C(C(=O)c3ccccc3C2=O)[C@@H](O[C@H]2C[C@H](NC(=O)C(F)(F)F)[C@H](O)[C@H](C)O2)O1` [BCH2112, (1'S, 1R, 3S)-isopropyl-[1-(2',3',6'-trideoxy-3'-trifluoroacetamido-L-lyxohexopyranose)-5,10-dioxo-3,4,5,10-tetrahydro-1H-naphtho-[2,3-c]-pyranyl]-ketone], for which the IC50 was 104 nM in test [1]; 1700 nM in test [2]; 270 nM in test [3]; 210 nM in the test with Lox (Melanoma); 65 nM in test [4].

As to `CC(=O)O[C@@H]1[C@H](C)O[C@@H](O[C@@H]2O[C@@H](C(C)=O)CC3=C2C(=O)c2ccccc2C3=O)C(Br)[C@@H]1OC(C)=O` (stereo partly drawn) [BCH2099, (1'S,1S,3R)-methyl-(1-[2',6'-dideoxy-3',4'-diacetoxy-2'-bromo-L-lyxohexopyranose]-5,10-dioxo-3,4,5,10-tetrahydronaphtho-[2,3-c]-pyran-3-yl) ketone], the IC50 in test [1] was 599 to 2000 nM; in test [2], 462 to 8400 nM; in test [3] it was 728 to 3400 nM; in the test on Lox (Melanoma), 128 to 1100 nM; in test [4] it was 303 to 1700 nM.

For `CC(=O)C1CC2=C(C(=O)c3ccccc3C2=O)C(OCC2CCCNC2)O1` (mixture of isomers) [BCH2061, Methyl-(1-O-[3-piperidinemethanol]-5,10-dioxo-3,4,5,10-tetrahydronaphthaleno-[2,3-c]pyran-3-yl) ketone hydrochloride salt], the IC50 in test [1] came out at 8.3 nM; in test [2] it was 141 nM; in test [3], 270 nM; with Lox (Melanoma), 45 nM; in test [4], 54 nM.

Take `COC(=O)[C@]1(C)CC2=C(C(=O)c3ccccc3C2=O)[C@@H](O[C@H]2C[C@H](NC(=O)C(F)(F)F)[C@H](O)[C@H](C)O2)O1` [BCH2077, (1'S, 1R, 3S)-1-(3-trifluoroacetamido-2',3',6'-trideoxy-L-lyxohexopyranose)-3-methoxycarbonyl-3-methyl-3,4,5,10-tetrahydro-5,10-dioxo-1H-naphtho-[2,3-c]pyran]: the IC50 came out at 1940 nM in test [1]; 21000 nM in test [2]; 7700 nM in test [3]; 1910 nM in the test on Lox (Melanoma); 3400 nM in test [4].

For the molecule `CC(=O)[C@@H]1CC2=C(C(=O)c3ccccc3C2=O)[C@@H](O[C@@H]2O[C@@H](C)[C@@H](O)[C@@H](O)[C@H]2I)O1` [BCH2015, (1'S,1R,3S)-methyl-(1-[2',6'-dideoxy-3',4'-dihydroxy-2'-iodo-L-lyxohexopyranose]-5,10-dioxo-3,4,5,10-tetrahydronaphtho[2,3-c]-pyran-3-yl) ketone], the IC50 was 367 nM in test [1]; 1170 nM in test [2]; 909 nM in test [3]; 1090 nM in the test on Lox (Melanoma); 557 nM in test [4].

Turning to `COC1OC(C(=O)Nc2ccccc2)=CC2=C1C(=O)c1ccccc1C2=O` (centres unmarked) [BCH2044, 1-methoxy-3-N-anilinylcarbonyl-5,10-dioxo-5,10-dihydro-1H-naphtho-[2,3-c]-pyran], the IC50 was found to be 1440 nM in test [1]; 5110 nM in test [2]; 4250 nM in test [3]; 380 nM in the test with Lox (Melanoma); 194 nM in test [4].

Take `CO[C@H]1C[C@H](O[C@H]2O[C@H](C(C)=O)CC3=C2C(=O)c2ccccc2C3=O)O[C@@H](C)[C@H]1OS(C)(=O)=O` [BCH2070, (1'-S, 1-R, 3-S)-methyl-(1-[2',3',4',6' tetradeoxy-3'-methoxy-4'-O-methanesulfonyl-L-lyxohexopyranose)-5,10-dioxo-3,4,5,10 tetrahydronaphtho-[2,3-c]pyran-3-yl) ketone]: the IC50 is 8.4 nM in test [1]; 120 nM in test [2]; 18 nM in test [3]; 15 nM with Lox (Melanoma); 6 to 534 nM in test [4].

Turning to `COC(=O)C1=CC2=C(C(=O)c3ccccc3C2=O)C(OC)O1` (centres unmarked) [BCH2160, 1-methoxy-3-methoxy carbonyl-5,10-dioxo-5,10-dihydro-1H-naphtho-[2,3-c]-pyran], the IC50 in test [1] came to 4930 nM; in test [2], 9120 nM; in test [3], 9590 nM; in the test with Lox (Melanoma), 7430 nM; in test [4] it was 15700 nM.

`CC(=O)CC1CC2=C(C(=O)c3cccc(O)c3C2=O)C(O[C@H]2C[C@H](NC(=O)C(F)(F)F)[C@H](O)[C@H](C)O2)O1` (mixture of isomers) [BCH2098, (1'-S, 1-S, 3-R) and (1'-S, 1-R, 3-S)-1-(6-hydroxy-1-(2',3',6'-trideoxy-3'-trifluoroacetamido, 4-hydroxy-L-lyxopyranose)-5,10-dioxo-3,4,5,10 tetrahydronaphtho-[2,3-c]pyran-3-yl) propane-2-one]: the IC50 in test [1] was determined as 8000 nM; in test [2], 30000 nM; in test [3], 10000 nM; in the test on Lox (Melanoma), 4200 nM; in test [4], 17000 nM.

In the case of `CC(=O)[C@H]1CC2=C(C(=O)c3ccccc3C2=O)[C@H](O[C@@H]2O[C@@H](C)[C@@H](O)[C@@H](NC(=O)C(F)(F)F)C2I)O1` (stereo partly drawn) [BCH2022, (1'S,1S,3R)-methyl-(1-[2',3',6'-trideoxy-2'-iodo-3'-trifluoroacetamido-4'-hydroxy-L-lyxohexopyranose]-5,10-dioxo-3,4,5,10-tetrahydronaphtho-[2,3-c]-pyran-3-yl) ketone], the IC50 in test [1] came out at 442 nM; in test [2], 1870 nM; in test [3] it was 934 nM; in the test with Lox (Melanoma), 484 nM; in test [4] it was 532 nM.

`CC[C@H]1CC2=C(C(=O)c3ccccc3C2=O)[C@H](O[C@H]2C[C@H](N)[C@H](O)[C@H](C)O2)O1` [BCH2021, (1'S,1S,3S)-5,10-dioxo-3-ethyl-1-(2',3',6'-trideoxy-3'-amino-L-lyxohexopyranose)-3,4,5,10-tetrahydro-1H-naphtho-[2,3-c]-pyran hydrochloride]: the IC50 in test [1] stood at 12400 nM; in test [2] it was 46400 nM; in test [3] it was 19000 nM; in the test with Lox (Melanoma) it was 10600 nM; in test [4] it was 37800 nM.

In the case of `COC(=O)[C@H](CC(C)C)NC(=O)[C@H](CO[C@H]1O[C@H](C(C)=O)CC2=C1C(=O)c1ccccc1C2=O)NC(=O)OC(C)(C)C` [BCH1998, (1S,2'S,3S,5'S)-Methyl-(1-O-[N-BOC-Serine-Leucine-Me ester]-5,10-dioxo-3,4,5,10-tetrahydro-1-H-naphtho[2,3-c]pyran-3-yl) ketone], the IC50 in test [1] was 125 nM; in test [2], 1660 nM; in test [3], 114 nM; with Lox (Melanoma), 63.1 nM; in test [4] it was 36.3 nM.

As to `CC(=O)[C@@H]1CC2=C(C(=O)c3ccc(O)cc3C2=O)[C@@H](O[C@H]2C[C@H](NC(=O)C(F)(F)F)[C@H](O)[C@H](C)O2)O1` [BCH1181, (1'S,1R,3S)-Methyl (5,10-dioxo-1-(2',3',6'-trideoxy-3'-trifluoroacetamido-L-lyxohexopyranose)-7-hydroxy-3,4,5, 10-tetrahydro[2,3-C]pyran-3-yl) ketone], the IC50 turned out to be 2260 nM in test [1]; 8480 nM in test [2]; 9230 nM in test [3]; 3070 nM in the test with Lox (Melanoma); 536 nM in test [4].

For the molecule `COC1OC(C(C)=O)=CC2=C1C(=O)c1ccccc1C2=O` (centres unmarked) [BCH2129, 3-Aceto-5,10-dioxo-1-methoxy-5,10-dihydro-1H-naphtho-(2,3-c)-pyran], the IC50 came to 359 nM in test [1]; 1060 nM in test [2]; 452 nM in test [3]; 228 nM with Lox (Melanoma); 2070 nM in test [4].
